Measured values taken from patent publication US20230175072A1, “3 FLAP OKAZAKI FRAGMENTS AND USES THEREOF” (City of Hope, priority 2021, published 2023).
“Also recorded” adds a separate entry of the source. Read-outs that look alike come from different tables or passages of the source.

How the values were obtained:
[1] = target: T1, Chk1 (Mus musculus, UniProt O35280); assay: Chk1 inhibition and lung cancer development in FEN1 FFAA mutant mice; assay type: in vivo; conditions: 0.025 mg/kg intraperitoneal once per week for four weeks from 6 months, lung tumors assessed at 16 months, vs DMSO
T1 construct: from tissue; host or cells: live mice (129S1 background), WT and FEN1 WT/FFAA heterozygotes
T1 sequence (O35280 1-476): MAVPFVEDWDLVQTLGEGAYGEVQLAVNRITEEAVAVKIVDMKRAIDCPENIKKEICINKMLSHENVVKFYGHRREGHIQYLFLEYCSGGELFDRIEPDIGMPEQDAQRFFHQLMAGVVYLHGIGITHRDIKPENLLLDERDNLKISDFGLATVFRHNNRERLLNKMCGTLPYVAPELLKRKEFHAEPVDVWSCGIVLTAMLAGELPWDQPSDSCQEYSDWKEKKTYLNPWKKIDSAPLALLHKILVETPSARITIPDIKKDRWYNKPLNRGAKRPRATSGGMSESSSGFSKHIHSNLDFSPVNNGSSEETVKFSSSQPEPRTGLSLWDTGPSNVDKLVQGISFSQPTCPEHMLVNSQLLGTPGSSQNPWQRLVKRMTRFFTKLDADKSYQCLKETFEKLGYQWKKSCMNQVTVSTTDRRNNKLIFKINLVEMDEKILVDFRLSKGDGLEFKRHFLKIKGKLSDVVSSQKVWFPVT
Source text: FEN1 F343A/F344A (FFAA) heterozygous mice (WT/FFAA, 129S1 genetic background), which develop lung adenoma or adenocarcinoma at a high frequency (32), were in-line bred and housed in the Animal Resource Center at City of Hope. All experimental protocols involving animals were approved by the Institutional Animal Care and Use Committee of City of Hope in compliance with the Public Health Service policies of the United States. To determine the extent to which inhibiting Chk1 suppressed cancer development in FEN1 FFAA mutant mice, randomly selected WT or WT/FFAA male or female mice (6 months old) were treated with 0.025 mg/kg body weight SB218078 (Chk1 inhibitor) in DMSO via intraperitoneal injection once per week for four weeks. Untreated control mice were injected with the same volume of DMSO (vehicle). All mice were euthanized at 16 months of age. The presence of lung tumors was determined using anatomic and histopathological analysis in blinding fashion. For whole exome sequencing (WES) studies, WT or FEN1 A159V/WT mice (33) were euthanized at 16 months, and normal lung or lung tumors were dissected for total genomic DNA extraction and purification.
Two-tailed student's t-test was used to determine significance in differences in mutation rate assays and the hypergeometric test was used to determine the significance in the enrichment of a signaling pathway. […]

[2] = test system: yeast cells; assay: MMS sensitivity spot assay; assay type: cell-based, Saccharomyces cerevisiae; conditions: YPD plates, 30° C., 48 h
Experimental: FIG. 6. pol3 ITD-bearing rad27Δ revertant mutations or pol3 ITD knock-in of rad27Δ cells partially reverses MMS-induced lethality. Viability of WT, pol3 ITD knock-in, rad27Δ, rad27Δ with the pol3 ITD knock-in mutation, and a rad27Δ revertant carrying a pol3 ITD mutation was analyzed using spot assays. Yeast cells of the indicated genetic backgrounds were serially diluted and spotted on YPD plates containing the indicated level of MMS. The plates were incubated at 30° C. for 48 hours.
To assay the MMS sensitivity of different yeast strains, 0.005%, 0.01%, 0.015% or 0.02% MMS was added to YPD plates after autoclaving, and plates were used the same day. Yeast cells were serially diluted and spotted on YPD plates containing different levels of MMS. The plates were incubated at 30° C. for 48 h.

[3] = test system: yeast cells; conditions: rad27Δ cells; cited from earlier work

O=C1NC(=O)c2c1c1c3ccccc3n3c1c1c2c2ccccc2n1C1CCC3O1 [SB218078]
spontaneous lung cancer development ([1]; WT mice): not in WT mice
spontaneous lung cancer development ([1]; WT/FFAA (FEN1 F343A/F344A heterozygous) mice, 0.025 mg/kg): significantly inhibited spontaneous lung cancer development; also recorded: blocks lung cancer development

COS(C)(=O)=O [MMS, methyl methanesulfonate]
MMS sensitivity of yeast cells ([2]; pol3 ITD cells in a WT RAD27 background, high concentrations of MMS): sensitive
MMS sensitivity of yeast cells ([2]; rad27Δ revertant cells and rad27Δ pol3 ITD knock-in mutant cells, higher concentrations (≥0.01%) MMS): sensitive
MMS sensitivity of yeast cells ([2]; rad27Δ revertant cells and rad27Δ pol3 ITD knock-in mutant cells, low concentration (0.005%) MMS): resistant
MMS sensitivity of yeast cells [3]: sensitive
